This is an account of results in PubChem BioAssay AID977607 (Broad Institute, 2014).

Where “and” joins values, the source holds several entries; their conditions need not be identical. Equal entries are not always repeated. Calls of active or inactive are those of the source.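 The calls were made as follows: active = curve reaches 40% activation over neutral controls at an AC40 no higher than the top valid tested concentration; inconclusive = no clear call, values can overlap the other calls; inactive = signal moving opposite to the expected increase, and the rest.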

In this assay the test system is INS-1E GLuc insulin secretion reporter, luminescence, 2-3 h. The experiment in a line: activators of glucose-dependent insulin secretion, dose response, cell-based, INS-1E, Gaussia luciferase, luminescence, cherry-pick, set 2 (AID 977607).
As for `Cc1cc2c(cc1C)CSC(c1c(O)ccc3ccccc13)SC2`, the AC40 was 10.9 µM.

On to `COc1ccc(C#Cc2ccc([C@@H]3[C@@H](CO)N4CCCCN(Cc5ccccc5F)C[C@@H]34)cc2)cc1`, for which the AC40 was 14.3 µM.

Turning to `COc1cc2c(cc1OC)-c1cc(Nc3ccccc3C)nc(=O)n1CC2`, the AC40 is 0.408 µM.

`CCCCc1c(Cc2ccccc2)ncn1CCc1ccccc1OC`: the AC40 is 14.3 µM.

On to `CCn1c(O)c(/C=N/N=C/c2ccc(OC)cc2)c2cc(C3=NNC(=O)CC3)ccc21`, for which the AC40 was 4.21 µM.

Take `CCCNC(=O)c1nnsc1S(=O)(=O)c1ccc(Cl)cc1`: the AC40 was 1.63 µM.

For the molecule `OC[C@@H]1[C@@H](c2ccc(C#CC3CCCC3)cc2)[C@H]2CN(CCC(F)(F)F)CCCCN12`, the AC40 is 8.56 µM.

`CCCCCc1c(Cc2ccccc2)ncn1CCc1ccccc1OC`: the AC40 is 12.3 µM.

For `CC(=O)N(/N=C/c1cccc(C)c1)c1nc(-c2ccc(Br)cc2)cs1`, the AC40 was 5.72 µM.

On to `O=c1[nH]c(/C=C/c2ccc(OC(F)F)cc2)nc2c1cnn2-c1ccccc1`, for which the AC40 is 21.6 µM.

Consider `CCC(C)Sc1cccc(-c2nc3cnccn3c2NC2CCCCC2)c1` (stereo unspecified), for which the AC40 is 5.37 µM.

Consider `COc1nc(N2CCOCC2)nc(-n2cccc2)n1`, for which the AC40 is 0.937 µM.

For the molecule `CCOc1nc(NC(=O)NS(=O)(=O)c2cccc(Cl)c2)nc(-c2ccccc2)n1`, the AC40 is > 35 µM (inactive).

With `CS(=O)(=O)N1CCN(c2ccc(NC(=O)c3ccc(-c4ccc(Cl)cc4)o3)cc2)CC1`, the AC40 is 9.25 µM.

On to `O=c1[nH]cnc2nc(-c3ccc(N(CCCl)CCCl)cc3)[nH]c12`, for which the AC40 was 5.89 µM.

In the case of `O=C(Nc1ccc(C(F)(F)F)cc1)N1C[C@@H]2N[C@H](C1)C2c1ccc(/C=C/c2ccccc2)cc1` (stereo partly specified), the AC40 is 8.24 µM and 1.64 µM.

As for `Cc1ccc(-c2cc(C(=O)NCc3cnn(C)c3)c3cc(Br)ccc3n2)cc1`, the AC40 was 3.7 µM.

For `CCOC(=O)c1c(-n2cnnn2)sc2c1CCCC2`, the AC40 is 14.6 µM.

With `Clc1ccc(-c2ccnc(Oc3cc(Cl)ccc3Cl)n2)cc1`, the AC40 was 7.53 µM.

In the case of `COc1ccc(CN(C)C(=O)Cn2cc(C)c(=O)[nH]c2=O)cc1OC`, the AC40 was > 35 µM (inactive).

As to `CCCCCCCCN1C(=O)[C@@H](CC(=O)N2CCN(C(=O)c3ccco3)CC2)C[C@@]2(C(=O)OC)C1=C[C@H](C1CCCC1)O[C@@H]2C`, the AC40 is 12 µM.

On to `Fc1cccc(-c2ccc(C3[C@@H]4CN(Cc5ccccc5F)C[C@H]3N4)cc2)c1` (stereo partly specified), for which the AC40 is 5.28 µM.

Regarding `CCOc1ncccc1C(=O)Nc1ncc(C)s1`, the AC40 was > 35 µM (inactive).

As for `O=c1[nH][nH]c2c1C(c1ccc(Cl)c(Cl)c1)OC(CCc1ccccc1)C2` (stereo unspecified), the AC40 was 16.9 µM.

On to `COC(=O)c1sccc1NC(=O)COc1ccc(Cl)cc1Cl`, for which the AC40 is 9.33 µM.

As to `CCOc1cccc(-c2csc(C3COc4ccccc4O3)n2)c1` (stereo unspecified), the AC40 is 3.7 µM.

In the case of `COC(=O)c1ccc2c(c1)NC(=O)C(N(CC(C)C)CC(C)C)S2` (stereo unspecified), the AC40 was 5.29 µM.

Take `Cc1nc(N)c(C#N)c(-c2cccnc2)c1C`: the AC40 is 14.2 µM.

On to `O=c1c2ccccc2sn1-c1ccc(F)cc1`, for which the AC40 is 7.1 µM.

Take `Cc1ccc2c(Cl)c(C)c(N3CCCCC3)nc2n1`: the AC40 was 11.5 µM.

Take `CCOC(=O)c1cn(-c2ccccc2)nc1-c1ccncc1`: the AC40 is 10.5 µM.

As to `COC(=O)C1=C(C)N(C)C(=NCc2cccc(C(F)(F)F)c2)NC1c1ccc(C(F)(F)F)cc1` (stereo unspecified), the AC40 is 18.1 µM.

For the molecule `COc1ccc(CCn2ccc(O)c(Cc3c(F)cccc3Cl)c2=O)cc1OC`, the AC40 was 0.0544 µM.

For the molecule `COc1ccc(S(=O)(=O)N2CCc3ccccc32)cc1C(=O)Nc1ccc(C(N)=O)cc1`, the AC40 was 16.3 µM.

For `COc1cccc(CN2C[C@@H]3N[C@H](C2)C3c2ccc(-c3ccccc3OC)cc2)c1` (stereo partly specified), the AC40 is 7.9 µM.

As for `CCn1nc(C(=O)Nc2ccc3nc(C)sc3c2)c2ccccc2c1=O`, the AC40 is 25.1 µM.

For the molecule `CC(=O)C1=C(S(=O)(=O)c2ccc(C)cc2)CS(=O)(=O)C1`, the AC40 was 1.23 µM.

In the case of `Cc1ccc(-n2nc3ccc(NC(=O)c4ccco4)cc3n2)cc1`, the AC40 is 10.8 µM.

`FC(F)(F)c1cc(CCN2CCNC[C@H]2Cc2cccc3ccccc23)cc(C(F)(F)F)c1`: the AC40 was 7.24 µM.

`O=C1N/C(=N\N=C\c2cccs2)SC1Cc1cccc(Cl)c1` (stereo unspecified): the AC40 was 9.04 µM.

On to `O=c1c2cc(F)ccc2sn1-c1ccccc1Cl`, for which the AC40 was 1.85 µM.

In the case of `COc1ccc(N2CCN(c3ccc(NC(=O)C4CCCCC4)cc3C#N)CC2)cc1`, the AC40 was 2.8 µM.

Consider `Cc1cc(OCCCN2CCC(C(O)(c3ccccc3)c3ccccc3)CC2)ccc1Br`, for which the AC40 was 4.77 µM.

Take `CCCCCCn1c(N(CC)CC)nc2c1c(=O)[nH]c(=O)n2C`: the AC40 was 23.8 µM.

In the case of `Cc1c(O)cnc2nn(-c3ccccc3)c(=N)n12`, the AC40 is > 35 µM (inactive).

As for `CC(C)n1cc(/C(N)=N/O)c(=O)n(Cc2ccccc2)c1=O`, the AC40 is 9.39 µM.

For `Cc1ccc(C(C)C)c(OCCNCCc2ccccc2)c1`, the AC40 was 15 µM.

Consider `COC(=O)c1ccc(OC)c(OC2CCCC2)c1`, for which the AC40 was 0.254 µM.

`O=C(OCC12CC3CC(CC(C3)C1)C2)c1ccc(NCc2cc(O)ccc2O)cc1`: the AC40 is 14.9 µM.

Take `Cc1c(CC(=O)O)c(=O)oc2c(C)c(OCc3ccccc3Br)ccc12`: the AC40 was > 35 µM (inactive).

On to `CC(C)(C)c1cc(NCCCn2ccnc2)n2ncc(-c3ccc(Cl)cc3)c2n1`, for which the AC40 is 6.19 µM.

With `CCc1ccc(-c2c(C)sc(NC(=O)C3CCC3)c2C#N)cc1`, the AC40 was 5.78 µM.

For `Cc1cc(NC(=O)c2ccccc2F)n(-c2nc3ccccc3[nH]2)n1`, the AC40 is 5.86 µM.

Regarding `CCCc1nnc2n1N=C(c1ccc(OC)c(OC)c1)CS2`, the AC40 is 2.98 µM.

Consider `COc1ccc(OC)c(-c2nnc3n2N=C(c2ccc(OC)c(OC)c2)CS3)c1`, for which the AC40 is 0.564 µM.

Take `COc1ccc(CCNS(=O)(=O)c2cccc(C)c2)cc1OC`: the AC40 was 2.46 µM.

For the molecule `CC(NCC(O)COCCC12CC3CC(CC(C3)C1)C2)c1ccccc1` (stereo unspecified), the AC40 was 14.9 µM.

Turning to `COc1ccc(CN2CCN(Cc3ccccc3F)CC2)cc1`, the AC40 was > 35 µM (inactive).

`CN(C)CCCNc1cc(C(C)(C)C)nc2c(-c3ccc(Cl)cc3)cnn12`: the AC40 was 7.08 µM.

For the molecule `CCCCCc1cc(=O)oc2c(C(CCN3CCCC(C)C3)c3ccc(OC)cc3)c(OC)cc(OC)c12` (stereo unspecified), the AC40 was 12 µM.

On to `Nc1c(C(=O)Nc2ccc3c(c2)OCCO3)nnn1Cc1ccc(Cl)cc1`, for which the AC40 was 12.7 µM.

Turning to `COc1cc(NC(=O)c2cccc(C)c2)ccc1NC(=O)c1cc2ccccc2o1`, the AC40 was 3.24 µM.

Regarding `COc1cc2c(cc1OC)-c1cc(Nc3ccccc3Br)nc(=O)n1CC2`, the AC40 is 0.366 µM.

For `Cn1c(=O)c(C(=O)NNC(=O)c2cccc(Cl)c2)c(O)c2ccccc21`, the AC40 is 7.02 µM.

As to `CS(=O)(=O)c1ccc2nc(NC(=O)Nc3ccc(Cl)c(Cl)c3)sc2c1`, the AC40 was 4.78 µM.

Take `COc1ccc(C)cc1NCc1cc(=O)oc2cc(-c3ccccc3)c(O)cc12`: the AC40 is 15.8 µM.

As to `CCOc1ccccc1Nc1cc2n(c(=O)n1)CCc1cc(OC)c(OC)cc1-2`, the AC40 was 1.07 µM.

Turning to `COc1cc2sc3ccc(C#Cc4ccc(N)cc4)cc3c(=O)c2cc1OC`, the AC40 is 33.4 µM.

For `CCC(=O)Nc1ccc(NC(=S)NC(=O)c2oc3ccccc3c2C)cc1`, the AC40 is 5.76 µM.

For `Fc1cccc(CN2C[C@@H]3N[C@H](C2)[C@@H]3c2ccc(-c3cccc(F)c3)cc2)c1`, the AC40 is 3.93 µM.

In the case of `COc1ccc(-c2cnnn2-c2ccc(N)cc2)cc1OC`, the AC40 is > 35 µM (inactive).

For `CCOC(=O)c1cnc2c(Cl)c(Cl)ccc2c1NCCN1CCOCC1`, the AC40 was > 35 µM (inactive).

Turning to `Cc1ccccc1Cn1ccc(NC(=O)c2cc3nc(-c4ccco4)cc(C(F)(F)F)n3n2)n1`, the AC40 was 4.72 µM.

For the molecule `COc1ccc(CCNC(=O)CCc2nc3ccccc3[nH]2)cc1OC`, the AC40 was 0.311 µM.

Turning to `Cc1ccc(C(=O)Oc2ccc(-c3nccc(-c4ccccn4)n3)cc2)cc1`, the AC40 is 3.99 µM.

Take `Cc1cccc(-c2ccc(C3[C@@H]4CN(Cc5cccc(F)c5)C[C@H]3N4)cc2)c1` (stereo partly specified): the AC40 was 12.3 µM and 2.97 µM.

Take `O=c1c2ccc(Cl)cc2[nH]c(=S)n1CCC1=CCCCC1`: the AC40 was 3.37 µM.

On to `Cc1ccc(Oc2ncc(-c3ccc(Cl)cc3)cn2)cc1`, for which the AC40 was 6.86 µM.

As for `COc1ccc(/C=N/N(C(C)=O)c2nc(-c3ccc(C)cc3)cs2)cc1`, the AC40 was 0.895 µM.

As for `COc1cc(OC)c2c3c(c(C4CCCCC4)nc2c1)CCC3`, the AC40 is 9.8 µM.

Turning to `Cc1ccc(NC(=O)c2ccc(COc3ccc4c(c3)CCC4)cc2)c(C)c1`, the AC40 is 1.27 µM.

Take `COc1ccc(C2CC(=O)Nc3sc(=N)c4c(N)c(C#N)c(N)nc4c32)cc1OC` (stereo unspecified): the AC40 is 6.1 µM.

In the case of `Fc1ccc(/C=N/c2c(-c3ccc(F)cc3)nc3n2CCS3)cc1`, the AC40 was 6.62 µM.

Turning to `CN(C(=O)c1ccc2c(c1)SC1=NS(=O)(=O)CCN12)C(c1ccccc1)c1ccccc1`, the AC40 is 0.518 µM.

Regarding `C/C(=N\NC(=O)c1cccc(Br)c1)c1ccc(Br)cc1`, the AC40 is 16.6 µM.

Take `CCCCc1c(-c2ccccc2OC)ncn1C(C)c1ccc(Cl)cc1` (stereo unspecified): the AC40 is 12.6 µM.

Turning to `OC[C@@H]1[C@@H](c2ccc(C#CC3CCCC3)cc2)[C@@H]2CN(CCC(F)(F)F)CCCCN12`, the AC40 is 6.02 µM.

`COc1cc2c(cc1OC)-c1cc(N3CCc4ccccc43)nc(=O)n1CC2`: the AC40 is 15.6 µM.

Regarding `COc1cc2cnc(-c3cccnc3)cc2cc1OC`, the AC40 is 6.19 µM.

Consider `Cc1cc(Cl)ccc1Oc1nc(-c2ccccc2)ncc1S(C)(=O)=O`, for which the AC40 is 4.28 µM.

As for `C=CCn1cc(Cl)cc(C(=O)Nc2ccccc2)c1=O`, the AC40 is 19.7 µM.

As to `CCCCc1c(-c2ccccc2F)ncn1CCc1ccccc1OC`, the AC40 is 7.64 µM.

On to `COc1ccc(S(=O)(=O)Nc2ccccc2OC)cc1N=Nc1c(O)[nH]c(=S)[nH]c1=O`, for which the AC40 was 16.4 µM.

Regarding `COC(=O)C1=C(C)N(Cc2cccc(C(F)(F)F)c2)C(=NCc2ccccc2)NC1c1ccc(Cl)cc1` (stereo unspecified), the AC40 is 11.6 µM.

On to `O=C(O)c1ccc(/C=N/n2c(C3CCCCC3)n[nH]c2=S)cc1`, for which the AC40 was 5.87 µM.

For the molecule `COc1ccc(C(=O)Nc2ccccc2C(=O)Nc2ccncc2)cc1`, the AC40 was 0.413 µM.
